# Patent publication US7994307B2, “RNAi modulation of the BCR-ABL fusion gene and uses thereof” (Alnylam Pharmaceuticals, Inc., priority 2004, dated 2011)
# Entries after “also recorded” stand apart in the source; their conditions may differ. Counter-ions that a name gives are not always drawn.
# Columns and labels:
# K562 cells = details: 48 h treatment with imatinib mesylate alone (Wilda et al.); cited from earlier work
# 32Dp210-T315I cells = experiment: Sensitivity to imatinib mesylate of 32Dp210-T315I cells; format: cell-based, murine; details: 32D cells expressing Bcr-Abl-T315I
# 32Dp210-H396P cells = experiment: Sensitivity to imatinib mesylate of 32Dp210-H396P cells; format: cell-based, murine; details: 32D cells expressing Bcr-Abl-H396P
# p210Bcr-Abl (e14a2) = experiment: Western blot of Bcr-Abl protein in 32Dp210/e14a2 cells after siRNA electroporation; format: cell-based, murine; details: 32Dp210Bcr-Abl (e14a2) cells
# Protocol: (§1) Protein assay: Western blot analysis was performed ˜24 h following the last siRNA -treatment or ˜96 hours following transfection with the pSUPER siRNA-expression vector as described (Goetz A W, et al., Cancer Res. 2001, 61:7635)
# (§2) siRNA-transfection: siRNAs were transfected into the murine cell lines 32Dp210Bcr-Abl-e14a2, -e13a2, 32Dp190Bcr-Abl-e1a2 and the human leukemic cell line MEG-01 using electroporation. Cell density was adjusted to 2.5-5×10^6/ml in RPMI/10% FCS. 800 μl of this cell suspension were mixed with siRNA in a 4 mm electroporation cuvette. Cells were electroporated by means of an EasyJect electroporator (peqlab, Erlangen, Germany) using a single-pulse protocol (250 V, 1800 μF, 8.). This treatment was repeated in intervals of 24 hours as indicated.
# (§3) In 32Dp210Bcr-Abl-e14a2, -e13a2 and 32Dp190Bcr-Abl-e1a2 inhibition of Bcr-Abl can be compensated by addition of exogenous growth factor to the medium. Therefor, recombinant murine IL-3, (1 ng/ml) was added to the growth medium during siRNA treatment of these cell lines. Following the last siRNA treatment cells were washed and factor deprived before starting the different examination procedures (Western blot/MTT).
# We used three murine hematopoetic 32D cell lines expressing either p210Bcr-Abl (e14a2), p210Bcr-Abl (e13a2) or p190Bcr-Abl (e1a2) to study the effectiveness of siRNAs to silence each of these human Bcr-Abl fusion breakpoint variants. In addition, experiments were performed in human Ph+leukemia cells (K562, MEG-01). All siRNAs used were directed to breakpoints of the Bcr and Abl sequence of the respective Bcr-Abl mRNA. RNAi-efficiency was assayed via analysis of Bcr-Abl protein levels and by monitoring the biological effect using MTT viability assay.
# 32Dp210/e14a2 cells [1] = experiment: MTT viability assay in 32Dp210/e14a2 cells after siRNA electroporation; format: cell-based, murine; details: treated four times, MTT
# Protocol: (§4) Survival Assay: Following the last siRNA treatment cells were seeded in 96 well plates and cultivated for another ˜48 hours. Cell survival was then measured by MTT assay as described (Van der Kuip H, et al., Blood. 2001, 98:1532)
# as §2, §3
# p210Bcr-Abl (e13a2) = experiment: Western blot of Bcr-Abl protein in 32Dp210/e13a2 cells; format: cell-based, murine; details: 32Dp210Bcr-Abl (e13a2) cells, repeated electroporation
# Protocol: (§5) FIGS. 1A-1B: ˜2.5 Mio 32Dp210/e13a2 cells have been electroporated 1-3×at intervals of 24 h with the indicated siRNA. BAF3/BAF15/BAF17/BAF19: bcr-abl-e13a2-specific siRNAs; BAF9: bcr-abl-e14a2-specific siRNA, served as control; EPC: electroporation control. FIG. 1A: Western blot analysis of p210^Bcr-abl (e13a2) in 32Dp210/e13a2˜24 h following siRNA treatment; the level of GAPDH served as loading control. Lane 1: EPC, Lane 2: BAF9, Lane 3: BAF3, Lane 4: BAF15, Lane 5: BAF17, Lane 6: BAF19. […] Values are means +/− SD of triplicates.
# as §1, §2, §3
# 32Dp210/e13a2 cells = experiment: MTT viability assay in 32Dp210/e13a2 cells; format: cell-based, murine; details: 32Dp210Bcr-Abl (e13a2) cells; for viability: repeated (up to three) treatments; for viability relative to controls (EPC): 48 h following 3rd treatment
# Protocol: as §5, §4, §2, §3
# 32Dp210/e14a2 cells [2] = experiment: Total cell number 48 h after last siRNA treatment, 32Dp210/e14a2 cells; format: cell-based, murine; details: start 2.5 Mio cells
# Protocol: as §2
# In order to determine optimal conditions for RNA interference, we repeated the siRNA treatment one to four times at intervals of 24 hours. […] Despite its short duration, the effect was still sufficient to reduce the viability of cells to approximately 59% relative to control cells (EPC, 100%). […] The residual viability level of the cells treated four times with BAF7 measured in MTT assay was not more than ˜2.5% of the level of the control cells. Identical results were obtained when cell counts 48 hours following last treatment were used for assessment of the biological effect. Both mock-treated and cells treated with a mismatch siRNA still increased their cell number from 2.5 Mio cells to more than 25 Mio cells within 48 hours. […] The lower efficiency of BAF1 became even more obvious when the biological effect of BAF1 was assessed.
# MEG-01 cells = experiment: MTT viability assay in MEG-01 cells; format: cell-based, human; details: treated three times
# Protocol: as §4, §2
# (§6) All three major Bcr-Abl oncogene variants -e14a2, -e13a2 and -e1a2 can be targeted by RNA interference. To identify effective siRNAs for inhibition of the second major Bcr-Abl fusion gene relevant in CML, Bcr-Abl-e13a2, we treated 32Dp210Bcr-Abl (e13a2) cells with four siRNAs (BAF3, BAF15, BAF17, BAF19) targeting different sequences of the Bcr-Able13a2 mRNA breakpoint. As a control we used a siRNA directed to the Bcr-Abl-e14a2 fusion sequence (BAF9). […] Despite the considerable overlap in their target sequence, BAF17 and BAF3 had no effect Bcr-Abl protein levels. […]
# Bcr-Abl-e13a2 = experiment: Western blot of Bcr-Abl protein in MEG-01 cells; format: cell-based, human; details: treated three times, compared to mismatch control BAF28
# Protocol: as §1, §2, §6
# p190Bcr-Abl = experiment: Western blot of p190Bcr-Abl in SUP-B15 cells; format: cell-based, human; details: 3 treatments at intervals of 24 hours, compared to EPC or BAF19 control
# Protocol: FIG. 3: Cells from the human B cell precursor leukemia cell line SUP-B15 (ACC 389; DSMZ, Braunschweig, breakpoint variant e1a2) were treated as described for […] with an e1a2-specific siRNA (BAF22) or with siRNA directed to another breakpoint variant (BAF19, specific for e13a2) as a control.
# as §2
# SUP-B15 cells were treated by electroporation as described above with an e1a2-specific siRNA (BAF22) or with siRNA directed to another breakpoint variant (BAF19) as a control.
# 32Dp190/e1a2 cells = experiment: MTT viability assay in 32Dp190/e1a2 cells; format: cell-based, murine
# Protocol: (§7) FIGS. 2A-2B: ˜5 Mio 32Dp190/e1a2 cells have been electroporated twice at intervals of 24 h with the indicated siRNA. BAF22/BAF24: bcr-abl-e1a2-specific siRNAs; BAF9: bcr-abl-e14a2-specific siRNA, served as control; BAF19: bcr-abl-e13a2-specific siRNA, served as control; EPC: electroporation control. FIG. 2A: Western blot analysis of p190^Bcr-abl (e1a2) in 32Dp190/e1a2 cells about 24 h following second siRNA treatment; the level of GAPDH served as loading control. Lane 1: EPC, Lane 2: BAF9, Lane 3: BAF19, Lane 4: BAF22, Lane 5: BAF24. […] Values are means +/− SD of triplicates.
# […] Cell survival was then measured by MTT assay as described (Van der Kuip H, et al., Blood. 2001, 98:1532)
# as §2
# In 32Dp210Bcr-Abl-e14a2, -e13a2 and 32Dp190Bcr-Abl-e1a2 inhibition of Bcr-Abl can be compensated by addition of exogenous growth factor to the medium. […]
# p190Bcr-Abl (e1a2) = experiment: Western blot of Bcr-Abl protein in 32Dp190/e1a2 cells; format: cell-based, murine; details: 32Dp190Bcr-Abl (e1a2) cells, treated twice at intervals of 24 h
# Protocol: as §7, §1
# as §2, with “indicated. […]” for “indicated.”
# Chain of p210Bcr-Abl (e13a2) (P11274+P00519 fused): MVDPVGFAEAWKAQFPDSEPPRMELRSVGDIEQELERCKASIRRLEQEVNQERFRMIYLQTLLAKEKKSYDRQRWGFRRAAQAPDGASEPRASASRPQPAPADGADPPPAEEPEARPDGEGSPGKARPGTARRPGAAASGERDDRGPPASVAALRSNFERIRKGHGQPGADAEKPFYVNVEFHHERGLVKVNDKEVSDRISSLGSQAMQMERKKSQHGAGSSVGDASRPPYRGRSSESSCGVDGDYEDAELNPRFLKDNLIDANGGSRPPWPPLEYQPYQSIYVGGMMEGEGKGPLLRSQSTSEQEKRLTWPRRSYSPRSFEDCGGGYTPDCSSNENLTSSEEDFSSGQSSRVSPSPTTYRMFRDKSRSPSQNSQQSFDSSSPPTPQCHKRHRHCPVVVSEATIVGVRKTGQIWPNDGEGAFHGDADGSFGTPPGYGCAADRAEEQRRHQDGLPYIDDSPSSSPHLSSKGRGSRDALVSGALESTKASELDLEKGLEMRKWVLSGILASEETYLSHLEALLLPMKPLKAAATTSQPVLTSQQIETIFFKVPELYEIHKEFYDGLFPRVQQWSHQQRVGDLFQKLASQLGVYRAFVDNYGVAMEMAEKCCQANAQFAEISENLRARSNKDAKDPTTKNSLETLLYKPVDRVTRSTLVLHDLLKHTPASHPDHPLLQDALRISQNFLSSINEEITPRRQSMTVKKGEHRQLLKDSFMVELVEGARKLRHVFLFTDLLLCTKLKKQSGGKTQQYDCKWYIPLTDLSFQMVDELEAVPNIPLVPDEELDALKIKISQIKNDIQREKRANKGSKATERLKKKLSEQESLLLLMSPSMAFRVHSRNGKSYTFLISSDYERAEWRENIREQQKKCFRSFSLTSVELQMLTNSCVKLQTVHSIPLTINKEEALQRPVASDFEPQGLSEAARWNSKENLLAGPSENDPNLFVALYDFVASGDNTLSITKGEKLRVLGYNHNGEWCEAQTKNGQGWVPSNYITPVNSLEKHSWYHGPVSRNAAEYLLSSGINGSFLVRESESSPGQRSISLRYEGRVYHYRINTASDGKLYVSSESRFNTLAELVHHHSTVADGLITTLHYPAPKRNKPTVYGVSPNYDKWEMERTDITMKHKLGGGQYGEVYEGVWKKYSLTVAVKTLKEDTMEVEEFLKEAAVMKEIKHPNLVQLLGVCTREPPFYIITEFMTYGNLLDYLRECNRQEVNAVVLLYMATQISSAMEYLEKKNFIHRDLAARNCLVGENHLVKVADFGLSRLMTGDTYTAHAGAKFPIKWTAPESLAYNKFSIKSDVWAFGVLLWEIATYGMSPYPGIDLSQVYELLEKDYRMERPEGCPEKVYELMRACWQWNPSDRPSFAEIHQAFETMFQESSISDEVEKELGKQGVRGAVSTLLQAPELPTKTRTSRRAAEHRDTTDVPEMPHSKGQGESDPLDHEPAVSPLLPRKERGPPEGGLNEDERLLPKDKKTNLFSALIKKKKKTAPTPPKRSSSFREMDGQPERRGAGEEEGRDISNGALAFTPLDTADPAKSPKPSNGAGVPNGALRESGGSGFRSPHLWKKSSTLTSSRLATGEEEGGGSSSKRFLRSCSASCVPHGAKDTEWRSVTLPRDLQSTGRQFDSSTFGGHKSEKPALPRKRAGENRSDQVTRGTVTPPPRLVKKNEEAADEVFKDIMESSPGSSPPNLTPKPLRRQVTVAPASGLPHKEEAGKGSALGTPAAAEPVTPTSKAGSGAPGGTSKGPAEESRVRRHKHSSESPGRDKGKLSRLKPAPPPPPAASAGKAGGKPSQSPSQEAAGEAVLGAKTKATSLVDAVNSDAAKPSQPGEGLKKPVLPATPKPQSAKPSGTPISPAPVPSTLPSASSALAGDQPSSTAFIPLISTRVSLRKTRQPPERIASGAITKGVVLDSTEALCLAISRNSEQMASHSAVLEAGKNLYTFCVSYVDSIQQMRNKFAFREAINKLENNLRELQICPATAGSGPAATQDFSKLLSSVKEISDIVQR
# Chain of p210Bcr-Abl (e14a2) (P11274+P00519 fused): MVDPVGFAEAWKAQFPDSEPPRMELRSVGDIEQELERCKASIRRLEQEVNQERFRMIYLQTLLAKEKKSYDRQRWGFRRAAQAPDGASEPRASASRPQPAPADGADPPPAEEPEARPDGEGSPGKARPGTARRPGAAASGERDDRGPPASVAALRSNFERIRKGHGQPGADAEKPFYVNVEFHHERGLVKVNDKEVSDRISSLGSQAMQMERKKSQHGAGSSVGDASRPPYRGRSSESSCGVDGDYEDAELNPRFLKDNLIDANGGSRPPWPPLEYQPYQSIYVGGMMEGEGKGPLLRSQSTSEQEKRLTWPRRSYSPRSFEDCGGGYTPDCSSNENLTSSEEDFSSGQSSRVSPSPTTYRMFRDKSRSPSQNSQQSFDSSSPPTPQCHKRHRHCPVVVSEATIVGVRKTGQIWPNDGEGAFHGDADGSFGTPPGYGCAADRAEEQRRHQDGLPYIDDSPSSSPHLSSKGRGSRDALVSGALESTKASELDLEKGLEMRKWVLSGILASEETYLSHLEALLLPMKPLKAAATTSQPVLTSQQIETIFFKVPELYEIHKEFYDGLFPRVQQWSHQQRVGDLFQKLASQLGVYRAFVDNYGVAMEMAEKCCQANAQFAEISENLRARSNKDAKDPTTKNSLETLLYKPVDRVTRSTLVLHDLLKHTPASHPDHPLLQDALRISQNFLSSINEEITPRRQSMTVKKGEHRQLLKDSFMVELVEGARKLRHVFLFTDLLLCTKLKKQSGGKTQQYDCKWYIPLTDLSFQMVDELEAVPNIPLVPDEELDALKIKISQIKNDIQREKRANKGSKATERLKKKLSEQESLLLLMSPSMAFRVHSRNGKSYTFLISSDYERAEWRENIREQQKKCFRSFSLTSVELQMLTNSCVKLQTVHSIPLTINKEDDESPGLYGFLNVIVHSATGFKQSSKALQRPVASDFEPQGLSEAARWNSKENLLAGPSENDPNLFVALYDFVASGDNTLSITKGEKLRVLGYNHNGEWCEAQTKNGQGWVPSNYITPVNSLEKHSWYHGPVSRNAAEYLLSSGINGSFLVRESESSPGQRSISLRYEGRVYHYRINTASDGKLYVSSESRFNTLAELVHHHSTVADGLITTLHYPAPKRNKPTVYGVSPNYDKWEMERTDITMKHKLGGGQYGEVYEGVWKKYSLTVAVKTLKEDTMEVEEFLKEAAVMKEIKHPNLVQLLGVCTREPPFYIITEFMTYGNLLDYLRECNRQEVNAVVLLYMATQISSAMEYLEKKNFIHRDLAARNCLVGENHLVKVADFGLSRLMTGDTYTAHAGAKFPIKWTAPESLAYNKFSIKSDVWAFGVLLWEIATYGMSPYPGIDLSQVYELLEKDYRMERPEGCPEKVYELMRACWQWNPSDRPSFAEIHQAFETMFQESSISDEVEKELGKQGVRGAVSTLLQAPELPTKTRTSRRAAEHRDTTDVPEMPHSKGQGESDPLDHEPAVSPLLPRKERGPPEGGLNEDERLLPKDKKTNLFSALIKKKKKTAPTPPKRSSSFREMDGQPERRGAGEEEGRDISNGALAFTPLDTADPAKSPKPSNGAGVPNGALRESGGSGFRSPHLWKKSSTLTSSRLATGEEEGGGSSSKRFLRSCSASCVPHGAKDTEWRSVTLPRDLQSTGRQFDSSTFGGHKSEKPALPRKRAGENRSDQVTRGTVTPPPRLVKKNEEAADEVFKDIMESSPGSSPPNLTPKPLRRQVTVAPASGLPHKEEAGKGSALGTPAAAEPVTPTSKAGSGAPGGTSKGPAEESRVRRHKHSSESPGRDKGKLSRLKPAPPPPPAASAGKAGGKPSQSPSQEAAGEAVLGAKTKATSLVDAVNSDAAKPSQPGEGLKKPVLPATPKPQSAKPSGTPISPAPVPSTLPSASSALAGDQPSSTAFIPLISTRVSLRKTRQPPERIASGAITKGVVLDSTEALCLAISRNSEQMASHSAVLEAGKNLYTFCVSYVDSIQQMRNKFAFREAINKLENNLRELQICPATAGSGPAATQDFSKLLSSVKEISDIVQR
molecule,measurement,setting,value
"Cc1ccc(NC(=O)c2ccc(CN3CCN(C)CC3)cc2)cc1Nc1nccc(-c2cccnc2)n1 [imatinib mesylate, Imatinib mesylate]",cells undergoing apoptosis,K562 cells,8%
same,resistance to imatinib mesylate,32Dp210-T315I cells,complete resistance
same,loss of sensitivity to imatinib mesylate compared to 32Dp210-wt,32Dp210-H396P cells,~4.7 fold
"BAF1: siRNA duplex, SEQ ID No. 7/8, single mismatch compared to BAF7 (chain 1 CAGAGUUGAAAAGCCCUUCAG; chain 2 CUGAAGGGCUUUUCAACUCUGCU; listed as RNA, chemistry not given here) [reference compound]",down-regulation of Bcr-Abl protein levels compared to BAF7,p210Bcr-Abl (e14a2),less efficient down-regulation
same,viability relative to EPC,32Dp210/e14a2 cells [1],52%
"BAF3: siRNA duplex, SEQ ID No. 9/10, specific for Bcr-Abl-e13a2 (chain 1 UAAGGAAGAAGCCCUUCAGCG; chain 2 CGCUGAAGGGCUUCUUCCUUAUU; listed as RNA, chemistry not given here)",Bcr-Abl protein levels,p210Bcr-Abl (e13a2),completely ineffective; also recorded: no effect
same,viability,32Dp210/e13a2 cells,did also not interfere with the viability
"BAF8: siRNA duplex, SEQ ID No. 3/4, Bcr-Abl-e14a2, mismatch control to BAF7 (three mismatches) (chain 1 CAGUGUUCAUAAGCCGUUCAG; chain 2 CUGAACGGCUUAUGAACACUGCU; chemistry not given here)",total cell number 48 h following last treatment,32Dp210/e14a2 cells [2],more than 25 Mio cells
"BAF15: siRNA duplex, SEQ ID No. 11/25, specific for Bcr-Abl-e13a2 (chain 1 AAUAAGGAAGAAGCCCUUCAG; chain 2 CUGAAGGGCUUCUUCCUUAUUGA; listed as RNA, chemistry not given here)",Bcr-Abl protein levels,p210Bcr-Abl (e13a2),effective down-regulation
same,viability relative to controls (EPC),32Dp210/e13a2 cells,~10%
same,viability,32Dp210/e13a2 cells,almost complete loss of viability; also recorded: reduction of viability
"BAF17: siRNA duplex, SEQ ID No. 13/26, specific for Bcr-Abl-e13a2 (chain 1 GGAAGAAGCCCUUCAGCGGCC; chain 2 GGCCGCUGAAGGGCUUCUUCCUU; listed as RNA, chemistry not given here)",Bcr-Abl protein levels,p210Bcr-Abl (e13a2),no effect
same,viability,32Dp210/e13a2 cells,did also not interfere with the viability
"BAF19: siRNA duplex, SEQ ID No. 15/27, specific for Bcr-Abl-e13a2 (chain 1 AUCAAUAAGGAAGAAGCCCUU; chain 2 AAGGGCUUCUUCCUUAUUGAUGG; listed as RNA, chemistry not given here)","viability compared to control cells (EPC, 100%)",MEG-01 cells,~28%
same,Bcr-Abl protein levels,p210Bcr-Abl (e13a2),effective down-regulation
same,Bcr-Abl protein levels / Bcr-Abl-e13a2 expression,Bcr-Abl-e13a2,effectively silenced Bcr-Abl-e13a2 expression; also recorded: significant loss of Bcr-Abl protein levels
same,viability relative to controls (EPC),32Dp210/e13a2 cells,~14%
same,viability,32Dp210/e13a2 cells,almost complete loss of viability; also recorded: reduction of viability
"BAF22: siRNA duplex, SEQ ID No. 19/28, specific for Bcr-Abl-e1a2 (chain 1 GGAGACGCAGAAGCCCUUCAG; chain 2 CUGAAGGGCUUCUGCGUCUCCAU; listed as RNA, chemistry not given here)",p190Bcr-Abl protein levels / Bcr-Abl-e1a2 expression,p190Bcr-Abl,effectively silenced Bcr-Abl-e1a2 expression; also recorded: significantly reduced
same,viability,"32Dp190/e1a2 cells; 32Dp190/e1a2 cells, repeated treatment, ~40 h after second treatment",reduction of viability
same,viability compared to EPC (100%),"32Dp190/e1a2 cells; 32Dp190Bcr-Abl (e1a2) cells, after 2nd treatment",15%
same,Bcr-Abl protein levels / Bcr-Abl-e1a2 gene expression,p190Bcr-Abl (e1a2),actively silenced Bcr-Abl-e1a2 gene expression; also recorded: significant down-regulation
"BAF24: siRNA duplex, SEQ ID No. 21/22, specific for Bcr-Abl-e1a2 (chain 1 GACGCAGAAGCCCUUCAGCGG; chain 2 CCGCUGAAGGGCUUCUGCGUCUC; listed as RNA, chemistry not given here)",Bcr-Abl protein levels / Bcr-Abl-e1a2 gene expression,p190Bcr-Abl (e1a2),no effect at all
